Experimental data as given in US20230023559A1, “ARYLMETHYLENE HETEROCYCLIC COMPOUNDS AS KV1.3 POTASSIUM SHAKER CHANNEL BLOCKERS” (D. E. Shaw Research, LLC, priority 2019, published 2023).

How the values were obtained:
[1] = target: hERG channel (Homo sapiens, UniProt Q12809); assay: hERG electrophysiology, automated whole-cell patch clamp (Patchliner)
[2] = target: T1, Kv1.3 potassium channel (Homo sapiens, UniProt P22001); assay: Kv1.3 potassium channel blocker activity, automated whole-cell patch clamp (Patchliner); assay type: cell-based; conditions: CHO-K1 cells stably expressing Kv1.3; whole cell current inhibition; read-out: Kv1.3_IC50
T1 construct: expressed in transfected cells
T1 sequence (P22001 whole entry): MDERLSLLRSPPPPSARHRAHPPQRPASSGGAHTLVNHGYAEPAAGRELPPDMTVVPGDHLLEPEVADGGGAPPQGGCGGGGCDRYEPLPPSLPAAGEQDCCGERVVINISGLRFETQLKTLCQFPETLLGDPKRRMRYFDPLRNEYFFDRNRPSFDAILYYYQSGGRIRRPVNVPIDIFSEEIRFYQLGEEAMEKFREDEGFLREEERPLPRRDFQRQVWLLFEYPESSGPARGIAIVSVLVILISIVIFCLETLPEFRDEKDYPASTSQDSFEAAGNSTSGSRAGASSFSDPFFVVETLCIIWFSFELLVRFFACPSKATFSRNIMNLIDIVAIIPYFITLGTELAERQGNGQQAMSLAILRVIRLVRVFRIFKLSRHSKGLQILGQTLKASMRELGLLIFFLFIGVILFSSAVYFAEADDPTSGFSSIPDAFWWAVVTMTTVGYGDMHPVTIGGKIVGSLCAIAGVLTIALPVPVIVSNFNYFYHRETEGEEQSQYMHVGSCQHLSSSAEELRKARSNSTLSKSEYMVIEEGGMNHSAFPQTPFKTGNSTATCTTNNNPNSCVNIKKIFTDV
In short: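 Peak-current block was recorded on stable Kv1.3 CHO-K1 cells by automated patch clamp, stepping from a −90 mV holding potential to +40 mV for 100 ms at 0.1 Hz with 10 s breaks between trains. Online P/4 leak subtraction, 10 kHz sampling; compound exposure under 10 s per train.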

Sequence of hERG channel (Q12809 whole entry): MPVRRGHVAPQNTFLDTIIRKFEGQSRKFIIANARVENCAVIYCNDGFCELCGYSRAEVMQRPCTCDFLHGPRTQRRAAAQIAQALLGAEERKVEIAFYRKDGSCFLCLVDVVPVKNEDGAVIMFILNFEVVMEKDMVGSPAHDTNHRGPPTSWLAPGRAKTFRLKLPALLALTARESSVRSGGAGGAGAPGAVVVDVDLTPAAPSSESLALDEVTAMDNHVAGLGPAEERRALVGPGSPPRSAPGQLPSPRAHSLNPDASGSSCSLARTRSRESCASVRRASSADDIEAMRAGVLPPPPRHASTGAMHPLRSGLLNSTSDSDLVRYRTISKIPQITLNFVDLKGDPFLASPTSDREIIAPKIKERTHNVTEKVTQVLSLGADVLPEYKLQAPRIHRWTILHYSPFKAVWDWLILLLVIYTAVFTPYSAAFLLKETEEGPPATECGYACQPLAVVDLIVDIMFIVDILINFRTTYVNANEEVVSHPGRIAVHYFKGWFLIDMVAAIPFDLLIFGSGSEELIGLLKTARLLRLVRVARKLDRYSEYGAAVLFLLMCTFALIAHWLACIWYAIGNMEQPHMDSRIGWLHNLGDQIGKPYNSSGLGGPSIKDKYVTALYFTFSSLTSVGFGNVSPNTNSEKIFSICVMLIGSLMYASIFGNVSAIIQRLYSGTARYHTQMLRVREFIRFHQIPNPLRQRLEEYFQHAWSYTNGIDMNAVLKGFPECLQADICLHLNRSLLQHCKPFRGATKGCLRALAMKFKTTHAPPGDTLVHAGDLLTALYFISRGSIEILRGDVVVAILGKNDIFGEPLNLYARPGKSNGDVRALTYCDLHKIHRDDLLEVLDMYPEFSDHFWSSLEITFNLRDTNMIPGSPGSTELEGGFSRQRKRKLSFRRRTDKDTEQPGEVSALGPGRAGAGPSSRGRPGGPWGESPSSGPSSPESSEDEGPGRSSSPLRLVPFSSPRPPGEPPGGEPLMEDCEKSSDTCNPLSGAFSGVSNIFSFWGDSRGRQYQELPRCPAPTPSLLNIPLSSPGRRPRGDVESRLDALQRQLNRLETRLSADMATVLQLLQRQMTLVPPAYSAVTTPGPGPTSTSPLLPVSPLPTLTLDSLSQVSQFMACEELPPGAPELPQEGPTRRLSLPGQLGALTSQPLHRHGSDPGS

O=S(=O)([C@H]1CCNC1)N1CCC([C@H](O)c2cc(Cl)c(Cl)cc2O)CC1 (single isomer, unassigned; isomer 3) [Compound 121, 4,5-dichloro-2-(hydroxy(1-(pyrrolidin-3-ylsulfonyl)piperidin-4-yl)methyl)phenol Isomer 3]
IC50 [1]: > 30 µM | IC50 [2]: < 0.5 µM

NC(c1cc(Cl)c(Cl)cc1O)C1CCNCC1 (stereo not shown) [Compound 1, 2-(amino(piperidin-4-yl)methyl)-4,5-dichlorophenol Trifluoroacetic Acid]
IC50 [1]: > 30 µM | IC50 [2]: < 10 µM

Oc1cc(Cl)c(Cl)cc1C(O)C1CCNCC1 (stereo not shown) [Compound 2, 4,5-dichloro-2-[hydroxy(piperidin-4-yl)methyl]phenol]
IC50 [1]: > 30 µM | IC50 [2]: < 10 µM

CC(=O)N1CCC(C(O)c2cc(Cl)c(Cl)cc2O)CC1 (stereo not shown) [Compound 4, 1-(4-((4,5-dichloro-2-hydroxyphenyl)(hydroxy)methyl)piperidin-1-yl)ethanone]
IC50 [1]: > 30 µM | IC50 [2]: < 10 µM

CC(=O)N1CCC(C(N)c2cc(Cl)c(Cl)cc2O)CC1 (stereo not shown) [Compound 9, 1-(4-(amino(4,5-dichloro-2-hydroxyphenyl)methyl)piperidin-1-yl)ethanone]
IC50 [1]: > 30 µM | IC50 [2]: < 10 µM

CC(=O)NC(c1cc(Cl)c(Cl)cc1O)C1CCNCC1 (stereo not shown) [Compound 11, N-[(4,5-dichloro-2-hydroxyphenyl)(piperidin-4-yl)methyl]acetamide]
IC50 [1]: > 30 µM | IC50 [2]: < 10 µM

CN1CCC(C(N)c2cc(Cl)c(Cl)cc2O)CC1 (stereo not shown) [Compound 21, 2-(amino(1-methylpiperidin-4-yl)methyl)-4,5-dichlorophenol]
IC50 [1]: < 30 µM | IC50 [2]: < 10 µM

Oc1ccc2ccccc2c1C(O)C1CCNCC1 (stereo not shown) [Compound 30, 1-(hydroxy(piperidin-4-yl)methyl)naphthalen-2-ol]
IC50 [1]: > 30 µM | IC50 [2]: < 10 µM

CNC(c1cc(Cl)c(Cl)cc1O)C1CCNCC1 (stereo not shown) [Compound 31, 4,5-dichloro-2-[(methylamino)(piperidin-4-yl)methyl]phenol Trifluoroacetic Acid]
IC50 [1]: > 30 µM | IC50 [2]: < 10 µM

NC(c1c(O)ccc2ccccc12)C1CCNCC1 (stereo not shown) [Compound 34, 1-(amino(piperidin-4-yl)methyl)naphthalen-2-ol Trifluoroacetic Acid]
IC50 [1]: > 30 µM | IC50 [2]: < 30 µM

CC(=O)NC(c1c(O)ccc2ccccc12)C1CCNCC1 (stereo not shown) [Compound 36, N-[(2-hydroxynaphthalen-1-yl)(piperidin-4-yl)methyl]acetamide Trifluoroacetic Acid]
IC50 [1]: > 30 µM | IC50 [2]: < 10 µM

NC(c1c(O)cc(Cl)c(Cl)c1Cl)C1CCNCC1 (stereo not shown) [Compound 37, 2-[amino(piperidin-4-yl)methyl]-3,4,5-trichlorophenol Trifluoroacetic Acid]
IC50 [1]: > 30 µM | IC50 [2]: < 10 µM

NC(c1cc(Cl)c(Cl)cc1O)C1CC2CCC(C1)N2 (stereo not shown) [Compound 42, 2-[amino(8-azabicyclo[3.2.1]octan-3-yl)methyl]-4,5-dichlorophenol Trifluoroacetic Acid]
IC50 [1]: > 30 µM | IC50 [2]: < 10 µM

CC(C)C(=O)N1CCC(C(N)c2cc(Cl)c(Cl)cc2O)CC1 (stereo not shown) [Compound 43, 1-[4-[amino(4,5-dichloro-2-hydroxyphenyl)methyl]piperidin-1-yl]-2-methylpropan-1-one Trifluoroacetic Acid]
IC50 [1]: < 30 µM | IC50 [2]: < 10 µM

NC(c1cc(Cl)c(Cl)cc1O)C1CCN(C2CCOCC2)CC1 (stereo not shown) [Compound 44, 2-(amino(1-(tetrahydro-2H-pyran-4-yl)piperidin-4-yl)methyl)-4,5-dichlorophenol]
IC50 [1]: < 30 µM | IC50 [2]: < 10 µM

NC(c1cc(Cl)c(Cl)cc1O)C1CCN(S(=O)(=O)N2CCCC2)CC1 (stereo not shown) [Compound 45, 2-(amino(1-(pyrrolidin-1-ylsulfonyl)piperidin-4-yl)methyl)-4,5-dichlorophenol Trifluoroacetic Acid]
IC50 [1]: < 30 µM | IC50 [2]: < 10 µM

CN(C)C(=O)N1CCC(C(N)c2cc(Cl)c(Cl)cc2O)CC1 (stereo not shown) [Compound 46, 4-(amino(4,5-dichloro-2-hydroxyphenyl)methyl)-N,N-dimethylpiperidine-1-carboxamide]
IC50 [1]: < 30 µM | IC50 [2]: < 10 µM

NC(c1cc(Cl)c(Cl)cc1O)C1CCN(C(=O)CO)CC1 (stereo not shown) [Compound 47, 1-[4-[amino(4,5-dichloro-2-hydroxyphenyl)methyl]piperidin-1-yl]-2-hydroxyethan-1-one]
IC50 [1]: > 30 µM | IC50 [2]: < 0.5 µM

N#CC1(C(=O)N2CCC(C(N)c3cc(Cl)c(Cl)cc3O)CC2)CC1 (stereo not shown) [Compound 48, 1-(4-(amino(4,5-dichloro-2-hydroxyphenyl)methyl)piperidine-1-carbonyl)cyclopropanecarbonitrile Trifluoroacetic Acid]
IC50 [1]: < 30 µM | IC50 [2]: < 0.5 µM

CC(C)(O)CC(=O)N1CCC(C(N)c2cc(Cl)c(Cl)cc2O)CC1 (stereo not shown) [Compound 49, 1-(4-(amino(4,5-dichloro-2-hydroxyphenyl)methyl)piperidin-1-yl)-3-hydroxyl-3-methylbutan-1-one trifluoroacetic acid]
IC50 [1]: < 30 µM | IC50 [2]: < 10 µM

C[C@H](N)C(=O)N1CCC(C(N)c2cc(Cl)c(Cl)cc2O)CC1 (stereo partly drawn) [Compound 50, (2S)-2-amino-1-(4-(amino(4,5-dichloro-2-hydroxyphenyl)methyl)piperidin-1-yl)propan-1-one trifluoroacetic acid]
IC50 [1]: > 30 µM | IC50 [2]: < 0.5 µM

NC(c1cc(Cl)c(Cl)cc1O)C1CCN(CC2CC2)CC1 (stereo not shown) [Compound 51, 2-[amino[1-(cyclopropylmethyl)piperidin-4-yl]methyl]-4,5-dichlorophenol Trifluoroacetic Acid]
IC50 [1]: > 30 µM | IC50 [2]: < 10 µM

NC(c1cc(Cl)c(Cl)cc1O)C1CNC1 (stereo not shown) [Compound 52, 2-[amino(azetidin-3-yl)methyl]-4,5-dichlorophenol Trifluoroacetic Acid]
IC50 [1]: > 30 µM | IC50 [2]: < 10 µM

NC(=O)N1CCC(C(N)c2cc(Cl)c(Cl)cc2O)CC1 (stereo not shown) [Compound 53, 4-[amino(4,5-dichloro-2-hydroxyphenyl)methyl]piperidine-1-carboxamide]
IC50 [1]: > 30 µM | IC50 [2]: < 0.5 µM

C[C@@H](N)C(=O)N1CCC(C(N)c2cc(Cl)c(Cl)cc2O)CC1 (stereo partly drawn) [Compound 54, (2R)-2-amino-1-(4-(amino(4,5-dichloro-2-hydroxyphenyl)methyl)piperidin-1-yl)propan-1-one Trifluoroacetic Acid]
IC50 [1]: > 30 µM | IC50 [2]: < 0.5 µM

CC(C)(O)CN1CCC(C(N)c2cc(Cl)c(Cl)cc2O)CC1 (stereo not shown) [Compound 56, 2-[amino[1-(2-hydroxy-2-methylpropyl)piperidin-4-yl]methyl]-4,5-dichlorophenol Trifluoroacetic Acid]
IC50 [1]: < 30 µM | IC50 [2]: < 10 µM

NC(c1cc(Cl)c(Cl)cc1O)C1(F)CCNCC1 (stereo not shown) [Compound 59, 2-[amino(4-fluoropiperidin-4-yl)methyl]-4,5-dichlorophenol Trifluoroacetic Acid]
IC50 [1]: < 30 µM | IC50 [2]: < 10 µM

NC(c1cc(Cl)c(Cl)cc1O)C1CCN(C(=O)[C@H]2CCNC2)CC1 (stereo partly drawn) [Compound 63, (4-(amino(4,5-dichloro-2-hydroxyphenyl)methyl)piperidin-1-yl)((S)-pyrrolidin-3-yl)methanone Trifluoroacetic Acid]
IC50 [1]: > 30 µM | IC50 [2]: < 0.5 µM

NC(c1cc(Cl)c(Cl)cc1O)C1CCN(C(=O)[C@@H]2CCNC2)CC1 (stereo partly drawn) [Compound 66, (4-(amino(4,5-dichloro-2-hydroxyphenyl)methyl)piperidin-1-yl)((R)-pyrrolidin-3-yl)methanone Trifluoroacetic Acid]
IC50 [1]: > 30 µM | IC50 [2]: < 0.5 µM

NC(c1cc(Cl)c(Cl)cc1O)C1CCN(C(=O)C2COC2)CC1 (stereo not shown) [Compound 67, 2-[amino[1-(oxetane-3-carbonyl)piperidin-4-yl]methyl]-4,5-dichlorophenol]
IC50 [1]: < 30 µM | IC50 [2]: < 0.5 µM

NC(c1cc(Cl)c(Cl)cc1O)C1CCN(C(=O)c2ccccc2)CC1 (stereo not shown) [Compound 68, 2-[amino(1-benzoylpiperidin-4-yl)methyl]-4,5-dichlorophenol Trifluoroacetic Acid]
IC50 [1]: < 30 µM | IC50 [2]: < 10 µM

NC(c1cc(Cl)c(Cl)cc1O)C1CCN(c2ccccn2)CC1 (stereo not shown) [Compound 70, 2-[amino[1-(pyridin-2-yl)piperidin-4-yl]methyl]-4,5-dichlorophenol Trifluoroacetic Acid]
IC50 [1]: < 30 µM | IC50 [2]: < 0.5 µM

NC(c1cc(Cl)c(Cl)cc1O)C1CCN(c2ncco2)CC1 (stereo not shown) [Compound 74, 2-[amino[1-(1,3-oxazol-2-yl)piperidin-4-yl]methyl]-4,5-dichlorophenol]
IC50 [1]: < 30 µM | IC50 [2]: < 10 µM

N[C@@H](c1cc(Cl)c(Cl)cc1O)C1CCN(C(=O)C2CNC2)CC1 [Compound 83, 2-[(R)-amino[1-(azetidine-3-carbonyl)piperidin-4-yl]methyl]-4,5-dichlorophenol Trifluoroacetic Acid]
IC50 [1]: > 30 µM | IC50 [2]: < 0.5 µM

CN(C)CC(=O)N1CCC([C@@H](N)c2cc(Cl)c(Cl)cc2O)CC1 [Compound 89, (R)-1-(4-(amino(4,5-dichloro-2-hydroxyphenyl)methyl)piperidin-1-yl)-2-(dimethylamino)ethanone]
IC50 [1]: > 30 µM | IC50 [2]: < 0.5 µM

NCC(=O)N1CCC([C@@H](N)c2cc(Cl)c(Cl)cc2O)CC1 [Compound 92, 2-amino-1-[4-[(R)-amino(4,5-dichloro-2-hydroxyphenyl)methyl]piperidin-1-yl]ethan-1-one Trifluoroacetic Acid]
IC50 [1]: > 30 µM | IC50 [2]: < 0.5 µM

N[C@@H](c1cc(Cl)c(Cl)cc1O)C1CCN(C(=O)[C@H]2CCN2)CC1 [Compound 95, (4-((R)-amino(4,5-dichloro-2-hydroxyphenyl)methyl)piperidin-1-yl)((R)-azetidin-2-yl)methanone]
IC50 [1]: > 30 µM | IC50 [2]: < 0.5 µM

C[C@]1(C(=O)N2CCC([C@@H](N)c3cc(Cl)c(Cl)cc3O)CC2)CCCN1 [Compound 96]
IC50 [1]: > 30 µM | IC50 [2]: < 0.5 µM
